Holding throughout (assay): Compound sensitivity testing in cell lines (48 h viability)
Assay type in all cases: cell-based

The subject of assay [1] is MCF7 cells. The following applies: Homo sapiens; MCF7, 48 hours. How it is done: (§1) 1500 NCI-H1734 or 1000 A549 cells were plated in a 384-well plate in 40 μl of RPMI supplemented with 10% Fetal Bovine Serum and 1% Pen/Strep. 24 hours after plating, a compound-library of 1924 small molecules was added at a concentration of 10 μM. Staurosporine was used a positive control for cytotoxicity at a concentration of 10 μM, and DMSO was used a negative control at a concentration of 1%. All compounds were incubated for 48 hours with indicated small molecules. After 48 hours, 384-well plates were removed from the incubator and allowed to cool to room temperature for 20 minutes. Cell viability was assessed by adding 40 μl of a 25% CELLTITERGLO® (Promega) in PBS with a THERMO COMBI™ or multichannel-pipette and incubated for 10 minutes. The luminescence signal was read using a Perkin-Elmer EnVision. Viability percentage was calculated by normalizing to DMSO controls.
(§2) 1000 HeLa (DMEM), 1000 A549 (RPMI), 500 MCF-7 (DMEM), 4000 PC3 (F12-K), 1000 NCI-H2122 (RPMI) or 1500 NCI-H1563 (RPMI) cells were plated in a 384-well plate in 40 μl of corresponding growth media supplemented with 10% Fetal Bovine Serum. 24 hours after plating, indicated compounds were added at indicated concentrations and incubated for 48 hours. Cell viability was assessed as described in Compound library screening in NCI-H1734 and A549 cell lines.

Assay [2] concerns A549 cells. The following applies: Homo sapiens; A549, 48 hours. How it is done: as §1, §2
The test system of assay [3] is PC3 cells. Conditions: Homo sapiens, PC-3; PC3, 48 hours. On the procedure:
as §1, §2

Assay [4] deals with NCI-H1563 cells. The following applies: Homo sapiens; NCI-H1563, 48 hours. How it is done: as §1, §2
The subject of assay [5] is NCI-H2122 cells. Conditions: Homo sapiens; NCI-H2122, 48 hours. On the procedure: as §1, §2

Molecules are shown by their SMILES.

By EC50 is commonly meant the concentration that produces a half-maximal response. High values mean a less potent agent, low ones a more potent agent.

With `CCN(CC)c1ccc(C2=NNC(=O)CC2C)cc1[N+](=O)[O-]` (centres unmarked) [DNMDP, 6-(4-(diethylamino)-3-nitrophenyl)-5-methyl-4,5-dihydropyridazin-3(2H)-one], the EC50 is more than 1000 nM in assay [1]; more than 1000 nM in assay [2]; more than 1000 nM in assay [3]; 10 to 100 nM in assay [4]; 10 to 100 nM in assay [5].
